# Source: patent US20050124557A1, “Use of benzothiazepines having activity as inhibitors of ileal bile acid transport for reducing cholesterololemia” (priority 2002, published 2005)
# Structures can show the parent of a compound that is named as a salt.
# How the values were obtained:
# [1] = tested on: LDL receptor/ApoE deficient mice; assay: Dose response study (experiment I): plasma lipids/lipoproteins after Compound (I) by gavage; assay type: in vivo; conditions: for Chol (plasma total cholesterol), % Change compared to control group / LP-remnants + LDL/HDL, % Change compared to control group / TG (plasma triglycerides), % Change compared to control group / HDL, % Change compared to control group / LDL, % Change compared to control group / LP-remnants, % Change compared to control group: three days, gavage
# Protocol: (§1) Compound (I) was dissolved in polyethanylglycol (PEG):ethanol:solutol:Water (4:1:0.5:8.5) vehicle and administered by gavage once a day in the afternoon.
# (§2) Altogether 54 female LDL receptor/ApoE deficient mice were used (5 to 6 weeks old weighing 25 to 30 g at the start of the study; obtained from B&M/AS, Denmark). They were kept under standardized conditions with free access to water and chow. The light-cycle hours were between 6:00 a.m. and 6:00 p.m. In experiment I, the dose response study, the mice were treated with Compound (I) by gavage once a day in the afternoon the first three days and in the morning the last day. The control group on regular R^3-chow received the vehicle by gavage. […] The control group received R^3 chow and vehicle.
# (§3) Mice were starved 3 hours before they were scarified at 10 a.m. Animals were anaesthetized with isofluran, bled by cardiac puncture, and thereafter killed by cervical dislocation. Blood was collected into EDTA containing tubes, plasma was separated by centrifugation and stored at −70° C.
# (§4) Cholesterol in plasma and in FPLC on line measurement was performed with a commercial cholesterol kit from Roche Diagnostics, GmbH, Germany, Cholesterol, CHOD-PAP 1489437.
# (§5) Triglycerides in plasma was measured by using a commercial reagent kit, from Roche Diagnostics, GmbH, Germany, Triglycerides/GB, 450032.
# (§6) The cholesterol distribution profiles were measured by using a size exclusion high performance liquid chromatography system, SMART, with column Superose 6 PC 3.2/30, (Amersham Pharmacia Biotec, Uppsala, Sweden). The chromatographic system was linked to an air segmented continuous flow system for online post-derivatization analysis of total cholesterol by using enzymatic colorimetric reagents. The SMART-system was connected to a sample injector, (Gina 50, Gynkotek HPLC, Germering, GmbH). Elution buffer consisted of 0.01M Tris, 0.03 M NaCl, pH 7.40, flow rate […]. The on line flow system was equipped with a peristaltic pump, flow rate 0.7 ml/min, and an incubation coil for 8 minutes at 37° C. The absorbance was measured at […] with a UV/VIS detector, (Jasco UV-970, Jasco International Co, Ltd, Japan). Data were integrated with a Chromeleon chromatography data system (Gynkotek HPLC, Germering GmbH). The distribution of lipoproteins was continuously measured as total cholesterol by using enzymatic calorimetric reagent, reconstituted in water, double volume compared to manufacturer instructions. The commercial kits were from Roche Diagnostics, GmbH, Germany, Cholesterol, CHOD-PAP 1489437. The separation was performed within 60 minutes on a 10 μl sample. The integrated area of the fractions was expressed in molar concentration. The various peaks in the profiles are designated LP-remnants, LDL, and HDL for simplicity, even though it is clear that the separation is determined primarily by the size of the lipoproteins.
# With the aim to determine the effect of the BAT inhibitor, Compound (I), on the level of plasma lipids in LDL receptor/ApoE deficient mice, groups of animals received vehicle or Compound (I) at increasing doses (0.62, 2.5, 10 and 40 μmol/kg/day) for 3.5 days. […] To analyze plasma lipoproteins in detail, plasma lipoprotein patterns were generated after separation of plasma by FPLC.
# [2] = tested on: LDL receptor/ApoE deficient mice; assay: Combination study (experiment II): plasma lipids/lipoproteins after Compound (I), atorvastatin calcium salt or both; assay type: in vivo; conditions: for HDL, % Change compared to control group / LDL, % Change compared to control group / LP-remnants, % Change compared to control group: FPLC
# Protocol: as §1, §2, §3, §4, §5, §6
# [3] = FPLC, dose not stated in the sentence (Table 1: 40 μmol/kg/day)
# [4] = FPLC analysis of plasma, 7 days
# [5] = one week, Compound (I) 10 μmol/kg/day by gavage, atorvastatin calcium salt 0.05% in chow
structure (smiles),measurement,setting,value
"CCCC[C@]1(CC)CS(=O)(=O)c2cc(O[C@@H]3O[C@H](C(=O)O)[C@@H](O)[C@H](O)[C@H]3O)ccc2[C@@H](c2ccccc2)N1 [Compound (I), (3R,5R)-3-butyl-3-ethyl-1,1-dioxido-5-phenyl-2,3,4,5-tetrahydro-1,4-benzothiazepin-8-yl β-D-glucopyranosiduronic acid]","Chol (plasma total cholesterol), % Change compared to control group",[1]; 0.625 μmol/kg/day,−9%
same,"LP-remnants + LDL/HDL, % Change compared to control group",[1]; 0.625 μmol/kg/day,−30%
same,"TG (plasma triglycerides), % Change compared to control group",[1]; 0.625 μmol/kg/day,13%
same,"HDL, % Change compared to control group","[1]; 0.625 μmol/kg/day, FPLC",29%
same,"LDL, % Change compared to control group","[1]; 0.625 μmol/kg/day, FPLC",8%
same,"LP-remnants, % Change compared to control group","[1]; 0.625 μmol/kg/day, FPLC",−27%
same,"Chol (plasma total cholesterol), % Change compared to control group",[1]; 10 μmol/kg/day,−35%
same,"LP-remnants + LDL/HDL, % Change compared to control group",[1]; 10 μmol/kg/day,−55%
same,"TG (plasma triglycerides), % Change compared to control group",[1]; 10 μmol/kg/day,23%
same,"HDL, % Change compared to control group","[1]; 10 μmol/kg/day, FPLC",36%
same,"LDL, % Change compared to control group","[1]; 10 μmol/kg/day, FPLC",−20%
same,"LP-remnants, % Change compared to control group","[1]; 10 μmol/kg/day, FPLC",−54%
same,"Chol (plasma total cholesterol), % Change compared to control group",[1]; 40 μmol/kg/day,−40%
same,"LP-remnants + LDL/HDL, % Change compared to control group",[1]; 40 μmol/kg/day,−62%
same,"TG (plasma triglycerides), % Change compared to control group",[1]; 40 μmol/kg/day,8%
same,"HDL, % Change compared to control group","[1]; 40 μmol/kg/day, FPLC",45%
same,"LDL, % Change compared to control group","[1]; 40 μmol/kg/day, FPLC",−23%
same,"LP-remnants, % Change compared to control group","[1]; 40 μmol/kg/day, FPLC",−63%
same,Plasma triglycerides (in words),"[1]; 0.62-40 μmol/kg/day, 3.5 days",not significantly altered
same,HDL cholesterol (in words),[1]; FPLC,no reduction
same,reduction in plasma cholesterol in LDL fraction,[1]; [3],23%
same,reduction in plasma cholesterol in LP-remnants fraction,[1]; [3],63%
same,reduction of total plasma cholesterol,"[1]; highest dose (40 μmol/kg/day), 3.5 days",40%
same,increase in HDL cholesterol,[2]; 7 days,22%
same,effect on the plasma triglyceride level (in words),"[2]; 7 days, Compound (I) 10 μmol/kg/day alone",no effect
same,reduction of total plasma cholesterol,"[2]; 7 days, atorvastatin calcium salt 0.05% in diet (approximately 80-100 mg/kg/day), Compound (I) 10 μmol/kg/day",40%
same,reduction of LDL cholesterol,[2]; [4],30%
same,reduction of LP-remnants cholesterol,[2]; [4],62%
same,"Chol (plasma total cholesterol), % Change compared to control group",[2]; [5],−42%
same,"LP-remnants + LDL/HDL, % Change compared to control group",[2]; [5],−54%
same,"TG (plasma triglycerides), % Change compared to control group",[2]; [5],7%
same,"HDL, % Change compared to control group",[2]; [5],22%
same,"LDL, % Change compared to control group",[2]; [5],−29%
same,"LP-remnants, % Change compared to control group",[2]; [5],−62%
"CC(C)c1c(C(=O)Nc2ccccc2)c(-c2ccccc2)c(-c2ccc(F)cc2)n1CC[C@@H](O)C[C@@H](O)CC(=O)O [Atorvastatin calcium salt, reference compound]",reduction of LDL cholesterol,[2]; [4],44%
same,"LP-remnants + LDL/HDL, % Change compared to control group",[2]; [5],2%
same,"HDL, % Change compared to control group",[2]; [5],−22%
same,"LDL, % Change compared to control group",[2]; [5],−43%
same,"LP-remnants, % Change compared to control group",[2]; [5],−2%
